Experimental data taken from US8822503B2, “2-pyridone compounds” (Taisho Pharmaceutical Co., Ltd, priority 2009, dated 2014).

Each compound was assayed against T1, human liver GK (Homo sapiens, UniProt P35557) (assay: GK activation test). Settings: test compound concentration needed to activate 50% of maximum activation ability; 4 mM 14C-labeled glucose, 2 mM ATP, room temperature, 20 minutes.
T1 construct: GST (glutathione S-transferase) (N); made in house; host or cells: E. coli
T1 sequence (P35557 1-466 isoform P35557-2): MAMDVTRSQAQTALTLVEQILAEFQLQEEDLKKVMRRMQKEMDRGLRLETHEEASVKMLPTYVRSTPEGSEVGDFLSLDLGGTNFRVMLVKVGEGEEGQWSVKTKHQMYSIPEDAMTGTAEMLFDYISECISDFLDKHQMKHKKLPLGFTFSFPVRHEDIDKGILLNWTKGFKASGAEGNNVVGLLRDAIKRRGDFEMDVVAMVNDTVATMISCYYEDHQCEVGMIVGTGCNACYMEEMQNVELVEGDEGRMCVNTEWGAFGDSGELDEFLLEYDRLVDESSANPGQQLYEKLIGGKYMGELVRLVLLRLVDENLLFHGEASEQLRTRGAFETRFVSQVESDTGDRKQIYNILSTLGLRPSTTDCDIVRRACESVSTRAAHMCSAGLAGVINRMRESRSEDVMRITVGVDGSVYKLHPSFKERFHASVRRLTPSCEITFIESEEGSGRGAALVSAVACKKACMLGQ
Format: biochemical
Method in brief: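 GST-tagged human liver GK from E. coli (0.24 μg/well) with 4 mM 14C-glucose, 2 mM ATP in Hepes-KOH pH 7.1, KCl, MgCl2, DTT, 1% DMSO, 20 min room temperature. Labeled glucose 6-phosphate captured on anion resin, eluted and counted. EC50 = concentration giving half of maximal activation.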

| SMILES | EC50 |
| --- | --- |
| CCCc1ccc(C(CC2CCCC2)c2ccc(S(C)(=O)=O)cc2)[nH]c1=O (stereo not shown) [Example 2-9, 6-{2-Cyclopentyl-1-[4-(methylsulfonyl)phenyl]ethyl}-3-propylpyridin-2(1H)-one] | 500 to 3000 nM |
| CS(=O)(=O)c1ccc(C(CC2CCCC2)c2ccc(C3CC3)c(=O)[nH]2)cc1 (stereo not shown) [Example 2-10, 6-{2-Cyclopentyl-1-[4-(methylsulfonyl)phenyl]ethyl}-3-cyclopropylpyridin-2(1H)-one] | 500 to 3000 nM |
| CCc1ccc(C(CC2CCCC2)c2ccc(S(=O)(=O)CCCO)cc2)[nH]c1=O (stereo not shown) [Example 2-11, 6-(2-Cyclopentyl-1-{4-[(3-hydroxypropyl)sulfonyl]phenyl}ethyl)-3-ethylpyridin-2(1H)-one] | 500 to 3000 nM |
| CC(C)c1ccc(C(CC2CCCC2)c2ccc(S(C)(=O)=O)cc2)[nH]c1=O (stereo not shown) [Example 2-12, 6-{2-Cyclopentyl-1-[4-(methylsulfonyl)phenyl]ethyl}-3-(propan-2-yl)pyridin-2(1H)-one] | 500 to 3000 nM |
| CCN(CC)CCCS(=O)(=O)c1ccc(C(CC2CCCC2)c2ccc(C)c(=O)[nH]2)cc1Cl (stereo not shown) [Example 2-13, 6-[1-(3-Chloro-4-{[3-(diethylamino)propyl]sulfonyl}phenyl)-2-cyclopentylethyl]-3-methylpyridin-2(1H)-one] | 500 to 3000 nM |
| Cc1ccc(C(CC2CCCC2)c2ccc(S(=O)(=O)CCCO)c(Cl)c2)[nH]c1=O (stereo not shown) [Example 2-14, 6-(1-{3-Chloro-4-[(3-hydroxypropyl)sulfonyl]phenyl}-2-cyclopentylethyl)-3-methylpyridin-2(1H)-one] | 500 to 3000 nM |
| CSc1ccc(C(CC2CCCCC2)c2ccc(C)c(=O)[nH]2)cc1 (stereo not shown) [Example 2-16, 6-{2-Cyclohexyl-1-[4-(methylsulfanyl)phenyl]ethyl}-3-methylpyridin-2(1H)-one] | 500 to 3000 nM |
| Cc1ccc(C(CC2CCCCC2)c2ccc(S(C)(=O)=O)cc2)[nH]c1=O (stereo not shown) [Example 2-17, 6-{2-Cyclohexyl-1-[4-(methylsulfonyl)phenyl]ethyl}-3-methylpyridin-2(1H)-one] | 500 to 3000 nM |
| CSc1ccc(C(CC2CCOCC2)c2ccc(C)c(=O)[nH]2)cc1 (stereo not shown) [Example 2-18, 3-Methyl-6-{1-[4-(methylsulfanyl)phenyl]-2-(tetrahydro-2H-pyran-4-yl)ethyl}pyridin-2(1H)-one] | 3000 to 10000 nM |

Next, values leading:

| EC50 | SMILES |
| --- | --- |
| 10 to 500 nM | Cc1ccc(C(CC2CCCC2)c2ccc(S(=O)(=O)C3CC3)cc2)[nH]c1=O (stereo not shown) [Example 2-3, 6-{2-Cyclopentyl-1-[4-(cyclopropylsulfonyl)phenyl]ethyl}-3-methylpyridin-2(1H)-one] |
| 500 to 3000 nM | CSc1ccc(C(CC2CCCC2)c2ccc(C)c(=O)[nH]2)cc1Cl (stereo not shown) [Example 2-4, 6-{1-[3-Chloro-4-(methylsulfanyl)phenyl]-2-cyclopentylethyl}-3-methylpyridin-2(1H)-one] |
| 500 to 3000 nM | Cc1ccc(C(CC2CCCC2)c2ccc(S(C)(=O)=O)c(Cl)c2)[nH]c1=O (stereo not shown) [Example 2-5, 6-{1-[3-Chloro-4-(methylsulfonyl)phenyl]-2-cyclopentylethyl}-3-methylpyridin-2(1H)-one] |
| 500 to 3000 nM | CCc1ccc(C(CC2CCCC2)c2ccc(SC)cc2)[nH]c1=O (stereo not shown) [Example 2-6, 6-{2-Cyclopentyl-1-[4-(methylsulfanyl)phenyl]ethyl}-3-ethylpyridin-2(1H)-one] |
| 500 to 3000 nM | CCc1ccc(C(CC2CCCC2)c2ccc(S(C)(=O)=O)cc2)[nH]c1=O (stereo not shown) [Example 2-7, 6-{2-Cyclopentyl-1-[4-(methylsulfonyl)phenyl]ethyl}-3-ethylpyridin-2(1H)-one] |
| 500 to 3000 nM | CCCc1ccc(C(CC2CCCC2)c2ccc(SC)cc2)[nH]c1=O (stereo not shown) [Example 2-8, 6-{2-Cyclopentyl-1-[4-(methylsulfanyl)phenyl]ethyl}-3-propylpyridin-2(1H)-one] |
| 10 to 500 nM | Cc1ccc(C(CCC2CCCC2)c2ccc(S(=O)(=O)C3CC3)cc2)[nH]c1=O (stereo not shown) [Example 2-15, 6-{3-Cyclopentyl-1-[4-(cyclopropylsulfonyl)phenyl]propyl}-3-methylpyridin-2(1H)-one] |
